The results in this text go back to patent US10308643B2, “Heterocyclic compound” (Takeda Pharmaceutical Company Limited, priority 2015, dated 2019).

Holding throughout (type): biochemical
One assay has as its target T1, HDAC6 enzyme (Homo sapiens, UniProt Q9UBN7).
T1 construct: transducing full length HDAC1 and HDAC6 genes into Sf-9 insect cells; GST; purchased SignalChem; host or cells: Sf-9 insect cells
T1 sequence (Q9UBN7 1-1215): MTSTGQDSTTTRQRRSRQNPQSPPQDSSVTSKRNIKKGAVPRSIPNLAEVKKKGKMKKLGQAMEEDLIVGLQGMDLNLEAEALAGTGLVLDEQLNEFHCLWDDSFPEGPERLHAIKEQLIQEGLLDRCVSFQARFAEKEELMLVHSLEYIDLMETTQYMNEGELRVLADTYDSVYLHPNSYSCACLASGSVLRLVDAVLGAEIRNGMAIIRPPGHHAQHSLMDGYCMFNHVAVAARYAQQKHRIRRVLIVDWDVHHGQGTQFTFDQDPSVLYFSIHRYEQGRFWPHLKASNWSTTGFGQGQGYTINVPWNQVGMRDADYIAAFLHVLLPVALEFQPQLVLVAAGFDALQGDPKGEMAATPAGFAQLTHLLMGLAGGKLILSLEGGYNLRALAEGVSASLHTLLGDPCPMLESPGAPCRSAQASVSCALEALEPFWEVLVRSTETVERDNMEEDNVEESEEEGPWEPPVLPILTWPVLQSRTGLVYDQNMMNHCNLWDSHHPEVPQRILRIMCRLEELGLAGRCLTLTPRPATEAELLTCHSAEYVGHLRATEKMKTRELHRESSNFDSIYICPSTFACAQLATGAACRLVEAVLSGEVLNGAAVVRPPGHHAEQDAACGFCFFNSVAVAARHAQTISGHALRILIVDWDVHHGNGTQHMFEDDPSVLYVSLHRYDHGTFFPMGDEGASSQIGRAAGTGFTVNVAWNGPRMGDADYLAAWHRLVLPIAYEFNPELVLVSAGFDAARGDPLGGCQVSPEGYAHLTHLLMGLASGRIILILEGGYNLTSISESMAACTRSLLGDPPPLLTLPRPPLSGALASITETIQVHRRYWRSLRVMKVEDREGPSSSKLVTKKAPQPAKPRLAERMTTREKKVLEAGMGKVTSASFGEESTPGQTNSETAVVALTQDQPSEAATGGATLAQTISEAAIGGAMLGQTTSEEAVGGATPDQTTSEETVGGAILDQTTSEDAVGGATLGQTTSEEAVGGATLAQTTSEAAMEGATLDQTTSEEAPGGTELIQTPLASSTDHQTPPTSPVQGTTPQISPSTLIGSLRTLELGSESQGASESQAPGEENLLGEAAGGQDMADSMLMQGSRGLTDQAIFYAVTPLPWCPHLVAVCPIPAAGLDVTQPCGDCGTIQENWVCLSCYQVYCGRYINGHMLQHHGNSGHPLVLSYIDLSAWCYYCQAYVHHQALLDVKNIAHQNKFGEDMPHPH
The assay can be described thus: HDAC1/6 Enzyme Inhibitory Assay (HDAC-Glo I/II Assay kit), HDAC6. The following applies: 1 μM test compound; wells without enzyme = 100% inhibition; read-out: HDAC6 inhibitory rate (%) (1 μM). The method in brief: (§1)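 Full-length human HDAC1 or HDAC6, GST-purified from Sf-9 cells, was preincubated with compound for 60 min at room temperature in Tris-HCl pH 7.5 buffer with MgCl2, KCl, NaCl, glutathione and Tween-20. HDAC-Glo I/II substrate-developer was then added and reacted for 20 min before luminescence was read. Inhibition was set relative to no-enzyme wells as 100% inhibition.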

For a further assay, the target named is T2, HDAC9 enzyme (Homo sapiens, UniProt Q9UKV0).
T2 construct: transducing full length HDAC9 gene into Sf-9 insect cells; made in house; host or cells: Sf-9 insect cells
T2 sequence (Q9UKV0 whole entry, species assumed): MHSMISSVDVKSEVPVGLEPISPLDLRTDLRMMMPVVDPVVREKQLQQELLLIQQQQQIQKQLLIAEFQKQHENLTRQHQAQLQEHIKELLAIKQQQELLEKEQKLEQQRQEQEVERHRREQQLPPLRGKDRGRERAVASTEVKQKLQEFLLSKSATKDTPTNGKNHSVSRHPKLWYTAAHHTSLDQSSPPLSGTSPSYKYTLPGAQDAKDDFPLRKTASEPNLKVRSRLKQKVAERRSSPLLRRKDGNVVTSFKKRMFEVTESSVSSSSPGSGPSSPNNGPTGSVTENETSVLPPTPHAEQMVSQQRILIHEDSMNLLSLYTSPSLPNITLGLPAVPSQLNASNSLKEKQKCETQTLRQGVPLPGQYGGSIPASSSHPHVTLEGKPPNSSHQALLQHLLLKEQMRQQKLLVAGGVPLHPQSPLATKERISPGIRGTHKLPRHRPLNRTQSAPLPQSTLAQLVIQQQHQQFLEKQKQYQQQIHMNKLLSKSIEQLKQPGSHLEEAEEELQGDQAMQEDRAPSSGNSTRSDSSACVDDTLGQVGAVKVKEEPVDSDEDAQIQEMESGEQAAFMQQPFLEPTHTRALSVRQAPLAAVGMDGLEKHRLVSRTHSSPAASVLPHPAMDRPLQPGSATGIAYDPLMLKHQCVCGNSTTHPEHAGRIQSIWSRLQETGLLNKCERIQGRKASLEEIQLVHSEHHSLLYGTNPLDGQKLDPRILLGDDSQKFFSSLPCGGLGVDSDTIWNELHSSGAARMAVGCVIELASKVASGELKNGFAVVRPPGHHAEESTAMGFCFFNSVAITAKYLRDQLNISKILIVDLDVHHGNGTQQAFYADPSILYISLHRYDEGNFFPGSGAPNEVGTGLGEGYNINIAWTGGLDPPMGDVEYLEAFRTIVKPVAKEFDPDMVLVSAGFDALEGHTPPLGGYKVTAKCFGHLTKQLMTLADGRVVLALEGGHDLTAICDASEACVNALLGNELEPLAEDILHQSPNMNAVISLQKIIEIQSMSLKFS
Put plainly: HDAC9 Enzyme Inhibitory Assay (HDAC-Glo class IIa). The following applies: 1 μM test compound; wells without enzyme = 100% inhibition; read-out: HDAC9 inhibitory rate (%) (1 μM). The method in brief:
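Luminescent HDAC-Glo class IIa readout after a 20 min room-temperature reaction; relative inhibition referenced to enzyme-free wells as 100%. Test compound first preincubated 60 min with Sf-9-expressed, Ni-NTA-purified full-length HDAC9 in pH 7.5 Tris buffer containing 135 mM NaCl, 0.6 mM glutathione and 0.01% Tween-20.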

For another assay, the target named is T3, HDAC1 enzyme (Homo sapiens, UniProt Q13547).
T3 construct: transducing full length HDAC1 and HDAC6 genes into Sf-9 insect cells; GST; purchased SignalChem; host or cells: Sf-9 insect cells
T3 sequence (Q13547 whole entry): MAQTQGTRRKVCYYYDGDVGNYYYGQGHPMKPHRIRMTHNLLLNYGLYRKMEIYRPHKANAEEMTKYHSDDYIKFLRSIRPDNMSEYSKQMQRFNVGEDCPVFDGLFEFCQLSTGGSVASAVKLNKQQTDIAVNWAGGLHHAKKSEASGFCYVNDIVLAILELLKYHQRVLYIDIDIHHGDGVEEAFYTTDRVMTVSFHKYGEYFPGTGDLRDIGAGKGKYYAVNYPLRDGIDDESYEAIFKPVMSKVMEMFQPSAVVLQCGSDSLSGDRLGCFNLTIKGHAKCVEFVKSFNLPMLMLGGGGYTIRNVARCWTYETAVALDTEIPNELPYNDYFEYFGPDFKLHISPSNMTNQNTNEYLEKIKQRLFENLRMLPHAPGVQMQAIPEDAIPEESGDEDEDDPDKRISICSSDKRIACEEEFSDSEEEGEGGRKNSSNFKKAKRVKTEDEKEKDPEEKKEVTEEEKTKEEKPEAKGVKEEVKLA
Put plainly: HDAC1/6 Enzyme Inhibitory Assay (HDAC-Glo I/II Assay kit), HDAC1. The following applies: 1 μM test compound; wells without enzyme = 100% inhibition; read-out: HDAC1 inhibitory rate (%) (1 μM). The method, boiled down:
as §1

With `C[C@H](c1ccccc1)N1CC[C@@H]2CC[C@@H](N3Cc4ccc(-c5noc(C(F)(F)F)n5)cc4C3=O)[C@@H]21` [Example 62, 2-((3aS,6R,6aR)-1-((1R)-1-phenylethyl)octahydrocyclopenta[b]pyrrol-6-yl)-6-(5-(trifluoromethyl)-1,2,4-oxadiazol-3-yl)isoindolin-1-one], the inhibition at 1 µM came out at 98% at HDAC6 enzyme, 89% on HDAC9 enzyme and 46% at HDAC1 enzyme.
For `C[C@H](c1ccccc1)N1CC[C@H]2CC[C@H](N3Cc4ccc(-c5noc(C(F)(F)F)n5)cc4C3=O)[C@H]21` [Example 63, 2-((3aR,6S,6aS)-1-((1R)-1-phenylethyl)octahydrocyclopenta[b]pyrrol-6-yl)-6-(5-(trifluoromethyl)-1,2,4-oxadiazol-3-yl)isoindolin-1-one], in that order: 90%, 82% and 15%.
For `O=C1CCC2(CCC(N3Cc4ccc(-c5noc(C(F)(F)F)n5)cc4C3=O)CC2)N1` (stereo not drawn) [Example 64, (5r,8r)-8-(1-oxo-6-(5-(trifluoromethyl)-1,2,4-oxadiazol-3-yl)-1,3-dihydro-2H-isoindol-2-yl)-1-azaspiro[4.5]decan-2-one], in that order: 93%, 70% and 6%.
In the same order, the values of `O=C(Cn1c(=O)oc2ccccc21)N1CCC(N2Cc3ccc(-c4noc(C(F)(F)F)n4)cc3C2=O)CC1` [Example 65, 3-(2-oxo-2-(4-(1-oxo-6-(5-(trifluoromethyl)-1,2,4-oxadiazol-3-yl)-1,3-dihydro-2H-isoindol-2-yl)piperidin-1-yl)ethyl)-1,3-benzoxazol-2(3H)-one] are 89%, 73% and 7%.
Take `O=C(c1ccccc1)N1CCC(N2Cc3ncc(-c4noc(C(F)(F)F)n4)cc3C2=O)CC1` [Example 67, 6-(1-benzoylpiperidin-4-yl)-3-(5-(trifluoromethyl)-1,2,4-oxadiazol-3-yl)-6,7-dihydro-5H-pyrrolo[3,4-b]pyridin-5-one]: the inhibition at 1 µM at HDAC6 enzyme worked out at 99%; at HDAC9 enzyme it was 81%; at HDAC1 enzyme, 13%.
For `O=C(Cc1ccc(F)cc1)N1CCC(N2Cc3ncc(-c4noc(C(F)(F)F)n4)cc3C2=O)CC1` [Example 68, 6-(1-((4-fluorophenyl)acetyl)piperidin-4-yl)-3-(5-(trifluoromethyl)-1,2,4-oxadiazol-3-yl)-6,7-dihydro-5H-pyrrolo[3,4-b]pyridin-5-one], in that order: 90%, 90% and 35%.
In the same order, the values of `CC(=O)N1CCC(N2Cc3ncc(-c4noc(C(F)(F)F)n4)cc3C2=O)C1` (stereo not drawn) [Example 69, 6-(1-acetylpyrrolidin-3-yl)-3-(5-(trifluoromethyl)-1,2,4-oxadiazol-3-yl)-6,7-dihydro-5H-pyrrolo[3,4-b]pyridin-5-one] are 91%, 81% and 15%.
In the same order, the values of `O=C(c1ccccc1)N1CCC(N2Cc3ncc(-c4noc(C(F)(F)F)n4)cc3C2=O)C1` (stereo not drawn) [Example 70, 6-(1-benzoylpyrrolidin-3-yl)-3-(5-(trifluoromethyl)-1,2,4-oxadiazol-3-yl)-6,7-dihydro-5H-pyrrolo[3,4-b]pyridin-5-one] are 96%, 95% and 52%.
On to `O=C(Cc1ccc(F)cc1)N1CCC(N2Cc3ncc(-c4noc(C(F)(F)F)n4)cc3C2=O)C1` (stereo not drawn) [Example 74, 6-(1-((4-fluorophenyl)acetyl)pyrrolidin-3-yl)-3-(5-(trifluoromethyl)-1,2,4-oxadiazol-3-yl)-6,7-dihydro-5H-pyrrolo[3,4-b]pyridin-5-one], for which the inhibition at 1 µM was 86% on HDAC6 enzyme, 90% on HDAC9 enzyme and 33% on HDAC1 enzyme.
